{
  "source": "patent US20250057814A1",
  "about": "“ENDODONTIC BIOFILM-ERADICATION TECHNIQUE UTILIZING A DUAL-SYSTEM INTRACANAL MEDICATION” (priority 2023, published 2025)",
  "key": {"E. coli ATCC 25922": {"system": "E. coli ATCC 25922", "details": "reference 26, cited from earlier work"}, "P. pseudomallei": {"system": "P. pseudomallei", "details": "reference 208, cited from earlier work"}, "S. aureus NCTC 8325-4": {"system": "S. aureus NCTC 8325-4", "details": "reference 215, cited from earlier work"}, "endodontic lesions": {"system": "endodontic lesions", "assay": "Intracanal medication of patients with large endodontic lesions, healing evaluated by CBCT and radiograph", "type": "in vivo", "details": "12 months post obturation"}},
  "note": "Marks after values point to notes of the source that are not given here.",
  "data": [
    {"smiles": "CC1(C)S[C@@H]2[C@H](NC(=O)[C@H](N)c3ccccc3)C(=O)N2[C@H]1C(=O)O", "note": "[Ampicillin]", "values": [
      {"measurement": "Concentration effective against biofilm phenotype", "setting": "E. coli ATCC 25922; biofilm, minimal biofilm eradication concentration", "result": "512^b μg/ml"},
      {"measurement": "MIC of planktonic phenotype", "setting": "E. coli ATCC 25922; planktonic E. coli ATCC 25922", "result": "2 (MIC) μg/ml"}
    ]},
    {"smiles": "CC(C)(O/N=C(\\C(=O)N[C@@H]1C(=O)N2C(C(=O)[O-])=C(C[n+]3ccccc3)CS[C@H]12)c1csc(N)n1)C(=O)O", "note": "[Ceftazidime]", "values": [
      {"measurement": "Concentration effective against biofilm phenotype", "setting": "P. pseudomallei; biofilm, concentration required for ~99% reduction", "result": "800^c μg/ml"},
      {"measurement": "MBC of planktonic phenotype", "setting": "P. pseudomallei; planktonic P. pseudomallei", "result": "8 (MBC) μg/ml"}
    ]},
    {"smiles": "CN[C@H](CC(C)C)C(=O)N[C@H]1C(=O)N[C@@H](CC(N)=O)C(=O)N[C@H]2C(=O)N[C@H]3C(=O)N[C@H](C(=O)N[C@H](C(=O)O)c4cc(O)cc(O)c4-c4cc3ccc4O)[C@H](O)c3ccc(c(Cl)c3)Oc3cc2cc(c3O[C@@H]2O[C@H](CO)[C@@H](O)[C@H](O)[C@H]2O[C@H]2C[C@](C)(N)[C@H](O)[C@H](C)O2)Oc2ccc(cc2Cl)[C@H]1O", "note": "[Vancomycin]", "values": [
      {"measurement": "Concentration effective against biofilm phenotype", "setting": "S. aureus NCTC 8325-4; biofilm, concentration required for 99% reduction", "result": "20^a μg/ml"},
      {"measurement": "MBC of planktonic phenotype", "setting": "S. aureus NCTC 8325-4; planktonic S. aureus NCTC 8325-4", "result": "2 (MBC) μg/ml"}
    ]},
    {"smiles": "[Ca+2].[OH-].[OH-]", "note": "[calcium hydroxide]", "values": [
      {"measurement": "change in size of lesion, Example Case No. 3", "setting": "endodontic lesions; tooth 10", "result": "no change in the size of lesion"},
      {"measurement": "lesion healing, Example Case No. 3 side-by-side comparison", "setting": "endodontic lesions; four weeks of intra-canal medication, teeth 7 and 8 formula, tooth 10 calcium hydroxide", "result": "non-healing of the smaller lesion"}
    ]}
  ]
}
